Experimental data: patent US10047086B2, “Imidazopyridines and imidazopyrazines as LSD1 inhibitors” (Incyte Corporation, priority 2014, dated 2018)

These compounds were tested against LSD-1 enzyme (Homo sapiens (Human), UniProt O60341) (assay: LANCE LSD1/KDM1A demethylase assay (LSD1 histone demethylase biochemical assay)). Settings: 1 nM LSD-1 enzyme, 1 hour preincubation at 25° C., 0.4 μM Biotin-labeled Histone H3 peptide substrate.
Compound `CN1CCC[C@@H](COc2nc(-c3ccc(C#N)cc3)c(-c3ccc4c(c3)CC(O)C4)n3cncc23)C1` (stereo partly drawn) [Example 101, 4-(5-(2-hydroxy-2,3-dihydro-1H-inden-5-yl)-8-{[(3R)-1-methylpiperidin-3-yl]methoxy}imidazo[1,5-a]pyrazin-6-yl)benzonitrile] has an IC50 of at most 50 nM.
In the case of `CN(C)C1CCN(c2nc(-c3ccc(C#N)cc3)c(-c3cnn(C4CCC4)c3)n3cncc23)CC1` [Example 139, 4-{5-(1-cyclobutyl-1H-pyrazol-4-yl)-8-[4-(dimethylamino)piperidin-1-yl]imidazo[1,5-a]pyrazin-6-yl}benzonitrile], the IC50 is reported as at most 50 nM.
`Cc1cc(-c2c(-c3ccc(C#N)cc3)nc(N3CCC(N(C)C)CC3)c3cncn23)ccc1CO` [Example 149, 4-{8-[4-(dimethylamino)piperidin-1-yl]-5-[4-(hydroxymethyl)-3-methylphenyl]imidazo[1,5-a]pyrazin-6-yl}benzonitrile] gave an IC50 of at most 50 nM.
`CN(C)C1CCN(c2nc(-c3ccc(C#N)cc3)c(-c3ccc4c(c3F)n(C)c(=O)n4C)n3cncc23)CC1` [Example 109, 4-[8-[4-(dimethylamino)piperidin-1-yl]-5-(4-fluoro-1,3-dimethyl-2-oxo-2,3-dihydro-1H-benzimidazol-5-yl)imidazo[1,5-a]pyrazin-6-yl]benzonitrile] showed an IC50 of at most 50 nM.
For `CCN1CCC[C@@H](COc2cc(-c3ccc(C#N)cc3)c(-c3cc(C)c(CO)c(F)c3)n3cncc23)C1` [Example 128, 4-{8-{[(3R)-1-ethylpiperidin-3-yl]methoxy}-5-[3-fluoro-4-(hydroxymethyl)-5-methylphenyl]imidazo[1,5-a]pyridin-6-yl}benzonitrile], the IC50 was at most 50 nM.
Work on `CN1CCC[C@@H](COc2cc(-c3ccc(C#N)cc3)c(-c3cnc4c(c3)ncn4C)n3cncc23)C1` [Example 58, (R)-4-(5-(3-methyl-3H-imidazo[4,5-b]pyridin-6-yl)-8-((1-methylpiperidin-3-yl)methoxy)imidazo[1,5-a]pyridin-6-yl)benzonitrile] yielded an IC50 of at most 50 nM.
In the case of `Cc1cc(-c2c(-c3ccc(C#N)cc3)nc(N3CCC(N(C)C)CC3)c3cncn23)cnc1C` [Example 89, 4-[8-[4-(dimethylamino)piperidin-1-yl]-5-(5,6-dimethylpyridin-3-yl)imidazo[1,5-a]pyrazin-6-yl]benzonitrile], the IC50 is reported as at most 50 nM.
For `CN(C)C1CCN(c2nc(-c3ccc(C#N)cc3)c(-c3cnc4c(c3)ncn4C)n3cncc23)CC1` [Example 107, 4-[8-[4-(dimethylamino)piperidin-1-yl]-5-(3-methyl-3H-imidazo[4,5-b]pyridin-6-yl)imidazo[1,5-a]pyrazin-6-yl]benzonitrile], the IC50 was at most 50 nM.
For `CN1CCOc2ccc(-c3c(-c4ccc(C#N)cc4)cc(OC[C@@H]4CCNC4)c4cncn34)cc21` [Example 15, 4-{5-(4-methyl-3,4-dihydro-2H-1,4-benzoxazin-6-yl)-8-[(3R)-pyrrolidin-3-ylmethoxy]imidazo[1,5-a]pyridin-6-yl}benzonitrile], the IC50 was at most 50 nM.
In the case of `CN1CCC[C@@H](COc2cc(-c3ccc(C#N)cc3)c(-c3cnn(C4CCC4)c3)n3cncc23)C1` [Example 134, 4-(5-(1-cyclobutyl-1H-pyrazol-4-yl)-8-{[(3R)-1-methylpiperidin-3-yl]methoxy}imidazo[1,5-a]pyridin-6-yl)benzonitrile], the IC50 is reported as at most 50 nM.
With `CN1CCC[C@@H](COc2cc(-c3ccc(C#N)cc3)c(-c3ccc4nccnc4c3)n3cncc23)C1` [Example 56, (R)-4-(8-((1-methylpiperidin-3-yl)methoxy)-5-(quinoxalin-6-yl)imidazo[1,5-a]pyridin-6-yl)benzonitrile] the IC50 was at most 50 nM.
`COc1ncc(-c2c(-c3ccc(C#N)cc3)nc(N3CCC(N(C)C)CC3)c3cncn23)cc1C#N` [Example 148, 5-{6-(4-cyanophenyl)-8-[4-(dimethylamino)piperidin-1-yl]imidazo[1,5-a]pyrazin-5-yl}-2-methoxynicotinonitrile] was tested, and the IC50 was at most 50 nM.
`CCN1CCC[C@@H](COc2cc(-c3ccc(C#N)cc3)c(-c3cnc(C)c(C)c3)n3cncc23)C1` [Example 131, 4-(5-(5,6-dimethylpyridin-3-yl)-8-{[(3R)-1-ethylpiperidin-3-yl]methoxy}imidazo[1,5-a]pyridin-6-yl)benzonitrile] gave an IC50 of at most 50 nM.
With `COCCN1CCC[C@@H](COc2cc(-c3ccc(C#N)cc3)c(-c3cnc(C)c(C)c3)n3cncc23)C1` [Example 130, 4-(5-(5,6-dimethylpyridin-3-yl)-8-{[(3R)-1-(2-methoxyethyl)piperidin-3-yl]methoxy}imidazo[1,5-a]pyridin-6-yl)benzonitrile] the IC50 was at most 50 nM.
With `Cc1ccc(-c2c(-c3ccc(C#N)cc3F)cc(OC[C@@H]3CCNC3)c3cncn23)cc1` [Example 5, 3-fluoro-4-{5-(4-methylphenyl)-8-[(3R)-pyrrolidin-3-ylmethoxy]imidazo[1,5-a]pyridin-6-yl}benzonitrile] the IC50 was at most 50 nM.
`CN1CCC[C@@H](COc2cc(-c3ccc(C#N)cc3)c(-c3ccc4c(c3)oc(=O)n4C)n3cncc23)C1` [Example 63, (R)-4-(5-(3-methyl-2-oxo-2,3-dihydrobenzo[d]oxazol-6-yl)-8-((1-methylpiperidin-3-yl)methoxy)imidazo[1,5-a]pyridin-6-yl)benzonitrile] gave an IC50 of at most 50 nM.
Work on `Cc1cc(-c2c(-c3ccc(C#N)cc3)cc(OC[C@@H]3CCCN(C)C3)c3cncn23)cnc1C` [Example 81, 4-(5-(5,6-dimethylpyridin-3-yl)-8-{[(3R)-1-methylpiperidin-3-yl]methoxy}imidazo[1,5-a]pyridin-6-yl)benzonitrile] yielded an IC50 of at most 50 nM.
`CN1CCC[C@@H](COc2nc(-c3ccc(C#N)cc3)c(-c3ccc4c(cnn4C)c3)n3cncc23)C1` [Example 23, 4-(5-(1-methyl-1H-indazol-5-yl)-8-{[(3R)-1-methylpiperidin-3-yl]methoxy}imidazo[1,5-a]pyrazin-6-yl)benzonitrile] was tested, and the IC50 was at most 50 nM.
